The values that follow come from ChEMBL document CHEMBL4354805, “Discovery of MK-8719, a Potent O-GlcNAcase Inhibitor as a Potential Treatment for Tauopathies” (J Med Chem, 2019).

pEC50: −log10 of the molar value.

A short description of data set [1]: Cmax in telemetered rat at 380 mg/kg, po. It is filed as ADME, organism-based. Also noted: dose 380 mg/kg, route oral. The conditions noted are these: in vivo.
In data set [2] the test system is Rattus norvegicus. The data set can be described thus: Elevation of O-protein in rat brain at 3 mg/kg, po measured after 24 hrs relative to control. The format is functional.
In data set [3] the target is T1, Protein O-GlcNAcase (Rattus norvegicus, UniProt Q8VIJ5).
T1 sequence (Q8VIJ5 whole entry): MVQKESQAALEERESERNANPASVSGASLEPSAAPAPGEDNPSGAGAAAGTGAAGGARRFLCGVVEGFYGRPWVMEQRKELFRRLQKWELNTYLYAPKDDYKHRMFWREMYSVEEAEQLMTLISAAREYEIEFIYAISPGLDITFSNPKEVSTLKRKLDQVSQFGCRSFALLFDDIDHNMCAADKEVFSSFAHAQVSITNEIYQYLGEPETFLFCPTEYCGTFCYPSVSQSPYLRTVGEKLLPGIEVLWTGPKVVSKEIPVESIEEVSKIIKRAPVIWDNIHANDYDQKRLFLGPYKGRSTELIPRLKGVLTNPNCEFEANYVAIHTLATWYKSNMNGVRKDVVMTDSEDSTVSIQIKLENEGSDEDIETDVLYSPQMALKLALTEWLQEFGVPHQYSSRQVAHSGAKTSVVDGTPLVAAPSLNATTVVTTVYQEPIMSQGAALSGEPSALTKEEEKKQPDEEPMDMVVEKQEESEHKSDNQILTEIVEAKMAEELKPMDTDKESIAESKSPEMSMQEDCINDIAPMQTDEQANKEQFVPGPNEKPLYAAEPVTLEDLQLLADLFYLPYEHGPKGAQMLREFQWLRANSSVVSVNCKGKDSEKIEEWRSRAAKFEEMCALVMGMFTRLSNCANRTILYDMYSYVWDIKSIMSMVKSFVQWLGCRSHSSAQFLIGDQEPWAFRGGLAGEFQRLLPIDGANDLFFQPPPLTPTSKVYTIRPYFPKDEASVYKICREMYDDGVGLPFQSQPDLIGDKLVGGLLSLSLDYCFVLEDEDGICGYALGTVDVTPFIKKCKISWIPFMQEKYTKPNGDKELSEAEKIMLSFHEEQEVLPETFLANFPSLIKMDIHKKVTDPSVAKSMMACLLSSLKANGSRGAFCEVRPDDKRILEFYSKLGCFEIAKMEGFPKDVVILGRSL
The experiment in a line: Inhibition of OGA in rat PC12 cells assessed as OGlcNAcylated protein level incubated for 24 hrs by ELISA. The format is cell-based. In general terms: An ELISA detects its analyte on a solid surface through an enzyme-linked reagent.

A short description of data set [4]: AUC (0 to 24 hrs) in rat brain at 10 mg/kg, po measured upto 24 hrs. More on the design: dose 10 mg/kg, time < 24 hr, route oral. The format is ADME, organism-based. The note with it: in vivo.
Data set [5] can be described thus: Half life in rhesus monkey at 1 mg/kg, iv. The conditions noted are these: in vivo. It is filed as ADME, organism-based, Macaca mulatta.
The nature of data set [6]: Stability in human hepatocytes assessed as parent compound remaining at 10 uM incubated for 120 mins. The format is ADME, cell-based, Hepatocyte. The conditions noted are these: read-out: Stability.
A short description of data set [7]: Clearance in Wistar Han rat at 2 mg/kg, iv. The conditions noted are these: in vivo. The format is ADME, organism-based.
The target of data set [8] is T2, IKs (KCNQ1) (Homo sapiens, UniProt P51787).
T2 sequence (P51787 whole entry): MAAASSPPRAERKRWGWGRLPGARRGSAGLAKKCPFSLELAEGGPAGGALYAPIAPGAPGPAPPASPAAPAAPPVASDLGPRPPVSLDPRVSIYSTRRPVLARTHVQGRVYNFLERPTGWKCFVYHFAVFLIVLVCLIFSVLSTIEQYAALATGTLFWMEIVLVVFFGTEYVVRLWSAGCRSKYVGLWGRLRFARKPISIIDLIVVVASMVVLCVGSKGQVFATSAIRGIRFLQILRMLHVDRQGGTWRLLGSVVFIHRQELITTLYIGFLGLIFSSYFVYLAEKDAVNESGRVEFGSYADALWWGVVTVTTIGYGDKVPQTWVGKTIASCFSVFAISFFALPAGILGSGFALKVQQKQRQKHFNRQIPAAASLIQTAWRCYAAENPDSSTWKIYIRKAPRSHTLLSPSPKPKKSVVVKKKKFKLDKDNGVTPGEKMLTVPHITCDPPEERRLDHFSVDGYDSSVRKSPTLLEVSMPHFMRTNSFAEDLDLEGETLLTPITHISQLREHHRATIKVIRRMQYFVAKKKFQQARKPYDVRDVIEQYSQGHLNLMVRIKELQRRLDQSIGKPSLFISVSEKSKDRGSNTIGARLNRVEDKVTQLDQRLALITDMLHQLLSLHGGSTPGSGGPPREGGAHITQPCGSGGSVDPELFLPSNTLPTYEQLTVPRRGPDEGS
The data set can be described thus: Inhibition of IKs (unknown origin) at 30 uM.

For data set [9], the system named is Rattus norvegicus. The experiment in a line: Hemodynamic activity in telemetered rat at 380 mg/kg, po. The format is ADME, organism-based. The conditions noted are these: in vivo.
Data set [10] can be described thus: Ratio of drug uptake in rat brain to plasma at 3 mg/kg, po measured after 24 hrs. The format is ADME, organism-based. The note with it: read-out: BPR.
Data set [11] in a line: Oral bioavailability in Wistar Han rat at 10 mg/kg. The note with it: in vivo. It is filed as ADME, organism-based.
A short description of data set [12]: Protein binding in rat plasma. The conditions noted are these: read-out: PPB. It is filed as ADME, cell-free.
Data set [13] in a line: Ratio of drug level in rat blood to plasma. The conditions noted are these: whole blood. The format is ADME, cell-free.
The nature of data set [14]: Protein binding in human plasma. The conditions noted are these: read-out: PPB. It is filed as ADME, cell-free.
Data set [15] is described as follows: Toxicity in rat assessed as change in physical signs at 1000 mg/kg, po administered for 7 days and measured on day 8. The format is organism-based. The conditions noted are these: in vivo, 168 h.
The nature of data set [16]: Fraction unbound in Wistar Han rat plasma at 2.5 uM by equilibrium dialysis. The format is ADME, cell-free. In general terms: In equilibrium dialysis only unbound substance equilibrates across the membrane.
Data set [17] is described as follows: Oral bioavailability in rhesus monkey at 3 mg/kg. The format is ADME, organism-based, Macaca mulatta. The note with it: in vivo.
The nature of data set [18]: Cmax in rat assessed as change in histomorphology at 1000 mg/kg, po administered for 7 days and measured on day 8. It is filed as ADME, organism-based. More on the design: dose 1000 mg/kg, route oral. The note with it: in vivo.
Data set [19] can be described thus: Fraction unbound in rhesus monkey plasma at 1 uM by equilibrium dialysis. The format is ADME, cell-free, Macaca mulatta.
A short description of data set [20]: Drug uptake in rat brain at 3 mg/kg, po measured after 24 hrs. The format is ADME, organism-based. The conditions noted are these: in vivo.
Data set [21] is described as follows: Stability in monkey hepatocytes assessed as parent compound remaining at 10 uM incubated for 120 mins. The format is ADME, cell-based, Macaca mulatta, Hepatocyte. The conditions noted are these: rhesus monkey, read-out: Stability.
Data set [22] relates to Rattus norvegicus. The experiment in a line: Increase in O-protein AUC in rat brain at 10 mg/kg, po measured upto 24 hrs. The format is ADME, organism-based. The note with it: in vivo.
Data set [23] can be described thus: Oral bioavailability in Beagle dog at 3 mg/kg. It is filed as ADME, organism-based, Canis lupus familiaris. The note with it: in vivo.

Usually Cmax stands for the peak of the concentration-time curve. By pEC50 is commonly meant the negative decadic logarithm of the EC50, by convention in mol/L. The half-life is the time needed for the level to fall by half in the phase considered. Usually clearance stands for the volume of plasma or blood freed of the substance per unit of time. One may read the inhibition as the relative decrease from the control value, in per cent. A word on the bioavailability: it is the share of a dose that reaches the circulation, judged against a reference dose that is usually intravenous. As to `CCNC1=N[C@@H]2[C@@H](O)[C@H](O)[C@@H](C(F)F)O[C@@H]2S1`, the Cmax in data set [1] came to 110 µM; in [18], 226 µM. Besides, the entries for the “fold change (FC)” value in [2] and in data set [22] were 2.17 and 31.42, respectively. The pEC50 in data set [3] is 7.28. The same compound displayed an AUC in data set [4] of 9.64 nM·h/g. Further, the half-life in data set [5] was 1.4 h. The remaining at 2 h, 10 µM amounted to 90% in data set [6] and 58% in [21]. This compound also yielded a clearance in [7] of 36.7 mL/min/kg. The compound also yielded an inhibition at 30 µM in data set [8] of less than 50%. Further, the Activity result in [9] and in data set [15] was “Non-Toxic” in each case. The Kp at 24 h in data set [10] was no less than 20.5. The bioavailability came out at 80% in data set [11], 9% in [17] and 90% in data set [23]. Also, the fraction unbound in data set [12] and in data set [14] was greater than 0.95 throughout. Also, the blood plasma ratio in [13] was in the range of 0.9 to 1.1. The compound further registered a fraction unbound at 2.5 µM in [16] of 0.97. In data set [19], the fraction unbound at 1 µM is greater than 0.99. The compound further came in with a Drug uptake in data set [20] of 0.088 nmol/g.
